In patent US20250042900A1 (priority 2022, published 2025):
Counter-ions that a name gives are not always drawn.

Key:
[1] = molecular target: T1, dopamine transporter (DAT) (Rattus norvegicus, UniProt P23977); assay: Dopamine Release Assay in rat synaptosomes; assay type: biochemical; conditions: rat synaptosomes preloaded with 30 nM [3H]DA; eight concentrations from 10 μM; four-parameter log-logistic fit; estimated
T1 construct: synaptosomes prepared from brains using standard procedures; from tissue; host or cells: caudate synaptosomes of male Sprague-Dawley rats

[2] = molecular target: CAV1.2 (Voltage-gated L-type calcium channel) (Homo sapiens, UniProt Q13936); assay: Ion channel assay, blocker format; assay type: cell-based; conditions: read-out: IC50 (μM) Antag./Blocker/Inhibitor
DAT and SERT = conditions: cited from earlier work
[3] = humans, after 75 or 125 mg MDMA; standard deviation 1.3 hours; cited from earlier work
DAT and NET = conditions: neurotransmitter release; cited from earlier work
[4] = molecular target: Nicotinic acetylcholine Receptor α4 β2 (nAChR(a4/b2)) (Homo sapiens, UniProt P17787+P43681); assay: Ion channel assay, blocker format; assay type: cell-based; conditions: nAChR(a4/b2); Ion Channel; blocker; read-out: IC50 (μM) Antag./Blocker/Inhibitor
[5] = molecular target: Gamma-aminobutyric acid Receptor A (GABAA); assay: Ion channel assay, blocker format; assay type: cell-based; conditions: GABAA; Ion Channel; blocker; read-out: IC50 (μM) Antag./Blocker/Inhibitor

T1 sequence (P23977 whole entry): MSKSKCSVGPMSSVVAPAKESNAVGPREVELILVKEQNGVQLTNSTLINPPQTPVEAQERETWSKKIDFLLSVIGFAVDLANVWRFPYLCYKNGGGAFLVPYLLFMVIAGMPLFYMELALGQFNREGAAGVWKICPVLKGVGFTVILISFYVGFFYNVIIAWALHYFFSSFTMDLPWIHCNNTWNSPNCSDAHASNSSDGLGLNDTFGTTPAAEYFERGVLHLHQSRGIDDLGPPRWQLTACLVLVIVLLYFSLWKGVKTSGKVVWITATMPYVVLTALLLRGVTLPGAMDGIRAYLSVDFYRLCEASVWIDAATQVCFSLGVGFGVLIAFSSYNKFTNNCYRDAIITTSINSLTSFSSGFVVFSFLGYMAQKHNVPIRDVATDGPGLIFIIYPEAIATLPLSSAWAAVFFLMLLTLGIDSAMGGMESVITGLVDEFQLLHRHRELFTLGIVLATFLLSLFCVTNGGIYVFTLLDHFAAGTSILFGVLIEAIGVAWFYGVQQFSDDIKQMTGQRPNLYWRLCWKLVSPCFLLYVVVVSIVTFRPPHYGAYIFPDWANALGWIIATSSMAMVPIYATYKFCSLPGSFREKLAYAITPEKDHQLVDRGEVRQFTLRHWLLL
Chain of Nicotinic acetylcholine Receptor α4 β2 (nAChR(a4/b2)) (P43681 29-627 limits assumed): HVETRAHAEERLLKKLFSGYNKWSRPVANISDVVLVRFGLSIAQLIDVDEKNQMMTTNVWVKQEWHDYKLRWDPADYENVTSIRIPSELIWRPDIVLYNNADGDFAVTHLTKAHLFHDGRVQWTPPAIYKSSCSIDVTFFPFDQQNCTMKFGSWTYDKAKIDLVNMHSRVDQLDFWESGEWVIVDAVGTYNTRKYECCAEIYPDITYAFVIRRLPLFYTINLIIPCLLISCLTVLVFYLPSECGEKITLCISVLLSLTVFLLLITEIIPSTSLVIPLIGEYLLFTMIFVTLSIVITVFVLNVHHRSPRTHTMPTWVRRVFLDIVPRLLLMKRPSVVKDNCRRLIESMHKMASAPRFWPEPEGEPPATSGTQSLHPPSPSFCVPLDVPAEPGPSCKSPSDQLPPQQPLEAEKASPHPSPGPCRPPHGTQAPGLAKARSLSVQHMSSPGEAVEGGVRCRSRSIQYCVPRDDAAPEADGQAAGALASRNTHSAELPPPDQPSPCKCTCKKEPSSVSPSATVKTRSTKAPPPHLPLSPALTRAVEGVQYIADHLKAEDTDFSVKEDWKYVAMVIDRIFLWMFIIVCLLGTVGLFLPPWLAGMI
Chain of Nicotinic acetylcholine Receptor α4 β2 (nAChR(a4/b2)) (P17787 26-502): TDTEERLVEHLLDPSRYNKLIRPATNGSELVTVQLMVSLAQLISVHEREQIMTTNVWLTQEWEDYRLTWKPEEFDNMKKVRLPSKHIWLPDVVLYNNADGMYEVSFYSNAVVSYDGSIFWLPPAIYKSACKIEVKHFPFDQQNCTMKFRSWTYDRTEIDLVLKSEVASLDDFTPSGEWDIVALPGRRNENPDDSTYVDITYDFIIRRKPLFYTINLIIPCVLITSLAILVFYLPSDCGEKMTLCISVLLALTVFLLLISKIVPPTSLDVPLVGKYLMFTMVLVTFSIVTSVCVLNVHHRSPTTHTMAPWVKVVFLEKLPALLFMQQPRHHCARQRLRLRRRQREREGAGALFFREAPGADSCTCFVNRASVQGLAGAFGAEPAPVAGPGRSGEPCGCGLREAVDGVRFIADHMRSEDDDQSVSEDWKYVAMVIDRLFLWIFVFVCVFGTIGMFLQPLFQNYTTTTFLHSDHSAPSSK

Question: Which EC50 [1] does the source give for `CCC(Cc1ccn2ccccc12)NC` (stereo not shown) [Compound 25-14, 1-(indolizin-1-yl)-N-methylbutan-2-amine] here?
Answer: 2710 nM

Question: Which EC50 [1] does the source give for `CNC(C)Cc1ccn2ccccc12` (stereo not shown) [Compound 26-5, 1-(indolizin-1-yl)-N-methylpropan-2-amine HCl salt] here?
Answer: 61.9 nM

Question: For `CCC(N)Cc1ccn2ccccc12` (stereo not shown) [Compound 27-1, 1-indolizin-1-ylbutan-2-amine HCl salt], which EC50 [1] is on record?
Answer: 21800 nM

Question: Which IC50 [2] does the source give for `COC(=O)C1=C(C)NC(C)=C(C(=O)OC(C)C)C1c1cccc2nonc12` (stereo not shown) [Isradipine, reference compound] here?
Answer: 0.017 µM

Question: What does the source list for `CNC(C)Cc1ccc2c(c1)OCO2` (stereo not shown) [MDMA]?
Answer: DAT/SERT IC50 ratio (DAT and SERT): 0.08; duration of acute therapeutic effects [3]: 4.2 h

Question: Which “DAT/NET EC50 ratio” value (DAT and NET) does the source give for `C[C@H](N)Cc1ccccc1` [d-amphetamine, dextroamphetamine] here?
Answer: 0.9

Question: Which “DAT/NET EC50 ratio” value (DAT and NET) does the source give for `CN[C@@H](C)Cc1ccccc1` [d-methamphetamine] here?
Answer: 0.5

Question: For “Dihydro-AY-erythroidine [reference compound]”, which IC50 [4] is on record?
Answer: 0.682 µM

Question: Which IC50 [5] does the source give for Picrotoxin [reference compound] here?
Answer: 2.78 µM
